From US7414072B2, “Aryl 5-thio-β-d-glucopyranoside derivatives and therapeutic agents for diabetes containing the same” (Taisho Pharmaceutical Co., Ltd., priority 2002, dated 2008) come the findings set out here.

One may read the melting point as the temperature, or range, at which the solid turns liquid. `OC[C@H]1S[C@@H](Oc2ccc(Cl)cc2Cc2cccc(Oc3ccccc3)c2)[C@H](O)[C@@H](O)[C@@H]1O` [Compound 62] registered a melting point of 124.5 to 127 °C.

Consider `CCn1cc(Cc2ccccc2O[C@@H]2S[C@H](CO)[C@@H](O)[C@H](O)[C@H]2O)cn1` [Compound 54], for which the melting point was in the range of 175 to 177.5 °C.

In turn, `CCc1cccc(Cc2ccccc2O[C@@H]2S[C@H](CO)[C@@H](O)[C@H](O)[C@H]2O)c1` [Compound 57] registered a melting point of 144 to 145 °C.

The molecule `CCc1ccc(Cc2cc(Br)ccc2O[C@@H]2S[C@H](CO)[C@@H](O)[C@H](O)[C@H]2O)cc1` [Compound 10, 4′-bromo-2′-(4′-ethylbenzyl)phenyl 5-thio-β-D-glucopyranoside] showed a melting point of 172 to 173.5 °C.

In the case of `CCc1ccc(Cc2cc(CO)ccc2O[C@@H]2S[C@H](CO)[C@@H](O)[C@H](O)[C@H]2O)cc1` [Compound 13, 2′-(4′-ethylbenzyl)-4′-(hydroxymethyl)phenyl 5-thio-β-D-glucopyranoside], the melting point lay in the range of 202.5 to 205 °C.

Molecule `Cc1ccccc1Cc1cc(Cl)ccc1O[C@@H]1S[C@H](CO)[C@@H](O)[C@H](O)[C@H]1O` [Compound 82, 4′-chloro-2′-(2′-methylbenzyl)phenyl 5-thio-β-D-glucopyranoside] came in with a melting point of 147 to 149 °C.

Take `OC[C@H]1S[C@@H](Oc2ccc(Cl)cc2Cc2c(F)c(F)cc(F)c2F)[C@H](O)[C@@H](O)[C@@H]1O` [Compound 66, 4′-chloro-2′-(2′,3′,5′,6′-tetrafluorobenzyl)phenyl 5-thio-β-D-glucopyranoside]: the melting point lay in the range of 204 to 211 °C.

Molecule `O=[N+]([O-])c1ccc(Cc2cc(Cl)ccc2O[C@@H]2S[C@H](CO)[C@@H](O)[C@H](O)[C@H]2O)cc1` [Compound 41, 4′-chloro-2′-(4′-nitrobenzyl)phenyl 5-thio-β-D-glucopyranoside] yielded a melting point of 180 to 182 °C.

`CCc1ccc(Cc2cccc(O[C@@H]3S[C@H](CO)[C@@H](O)[C@H](O)[C@H]3O)c2)cc1` [Compound 49] showed a melting point of 132 to 134 °C.

Take `CCc1ccccc1Cc1ccccc1O[C@@H]1S[C@H](CO)[C@@H](O)[C@H](O)[C@H]1O` [Compound 58]: the melting point was in the range of 96 to 101 °C.

As to `CCSc1ccc(Cc2ccccc2O[C@@H]2S[C@H](CO)[C@@H](O)[C@H](O)[C@H]2O)cc1` [Compound 48, 2′-(4′-ethylthiobenzyl)phenyl 5-thio-β-D-glucopyranoside], the melting point is 174 to 176.5 °C.

Consider `OC[C@H]1S[C@@H](Oc2ccccc2OCc2ccccc2)[C@H](O)[C@@H](O)[C@@H]1O` [Compound 25], for which the melting point was in the range of 148 to 150 °C.

The molecule `Cc1ccc(Cc2ccccc2O[C@@H]2S[C@H](CO)[C@@H](O)[C@H](O)[C@H]2O)nc1` [Compound 36] displayed a melting point of 177 to 180 °C.

In the case of `Cc1ccc(Nc2ccccc2O[C@@H]2S[C@H](CO)[C@@H](O)[C@H](O)[C@H]2O)cc1` [Compound 34, 2′-(p-Toluidino)phenyl 5-thio-β-D-glucopyranoside], the melting point lay in the range of 152 to 153 °C.

In turn, `CCCCCOc1ccc(Cc2cc(Cl)ccc2O[C@@H]2S[C@H](CO)[C@@H](O)[C@H](O)[C@H]2O)cc1` [Compound 72, 4′-chloro-2′-(4′-pentyloxybenzyl)phenyl 5-thio-β-D-glucopyranoside] came in with a melting point of 143 to 144.5 °C.

Take `CCc1ccc(Cc2cc(C)ccc2O[C@@H]2S[C@H](CO)[C@@H](O)[C@H](O)[C@H]2O)cc1` [Compound 7, 2′-(4′-ethylbenzyl)-4′-methylphenyl 5-thio-β-D-glucopyranoside]: the melting point fell in the range of 154 to 156 °C.

The molecule `COc1ccc(Cc2cc(Cl)ccc2O[C@@H]2S[C@H](CO)[C@@H](O)[C@H](O)[C@H]2O)c(OC)c1` [Compound 80, 4′-chloro-2′-(2′,4′-dimethoxybenzyl)phenyl 5-thio-β-D-glucopyranoside] showed a melting point of 195.5 to 197 °C.
